Measurements as given in PubChem BioAssay AID743125 (Broad Institute, 2013).
“And” between values parts separate entries of the source, which are not always exact repeats. Equal values may be shown once. The source made the active and inactive calls.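 How the source made its calls: active means fitted AC50 no higher than twice the top valid dose tested for that sample; inconclusive means flat curve between -30 and -70% activity, or poor fit; inactive means the rest.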

Each compound was assayed against PglD UDP-4-amino-sugar N-acetyltransferase (Campylobacter jejuni) (assay: PglD acetyltransferase inhibitors, dose response, biochemical, DTNB absorbance, dry powder samples, set 5 (AID 743125)). Conditions: purified PglD, DTNB absorbance 412 nm, CoA release.

| AC50 | Structure (SMILES) |
| --- | --- |
| 27.6 µM and 3.61 µM | Cc1c(C(=O)O)sc2nc(/C=C/c3cccc(O)c3)[nH]c(=O)c12 |
| 24.9 µM | Cc1c(C(=O)O)sc2nc(/C=C/c3ccccc3O)[nH]c(=O)c12 |
| 16.9 µM | Cc1c(C(=O)O)sc2nc(/C=C/c3cccc(N)c3)[nH]c(=O)c12 |
| 4.69 µM | Cc1c(C(=O)O)sc2nc(/C=C/c3cccc(=O)[nH]3)[nH]c(=O)c12 |
| 11.5 µM | COc1cccc(/C=C/c2nc3sc(C(=O)O)c(C)c3c(=O)[nH]2)c1 |
| > 39 µM (inactive) | Cc1c(C(=O)O)sc2nc(/C=C/c3cccc(OC(F)(F)F)c3)[nH]c(=O)c12 |
| 7.09 µM | Cc1c(C(=O)O)sc2nc(/C=C/c3ccccn3)[nH]c(=O)c12 |
| 7 µM | Cc1c(C(=O)O)sc2nc(/C=C/c3ccc4[nH]ccc4n3)[nH]c(=O)c12 |
| > 39 µM (inactive) | Cc1c(C(=O)O)sc2nc(/C=C/c3cccc([N+](=O)[O-])c3)[nH]c(=O)c12 |
| > 20 µM (inactive) | Cc1c(C(=O)O)sc2nc(/C=C/c3cccc(N4CCOCC4)n3)[nH]c(=O)c12 |

Same assay, conditions: purified PglD, DTNB absorbance 412 nm, CoA release; at 1 µM (top of the series)

| activity change, negative = inhibition | Structure (SMILES) |
| --- | --- |
| inactive | Cc1c(C(=O)O)sc2nc(/C=C/c3ccc(O)cn3)[nH]c(=O)c12 |

Same assay, conditions: purified PglD, DTNB absorbance 412 nm, CoA release; at 10 µM (top of the series)

| activity change, negative = inhibition | Structure (SMILES) |
| --- | --- |
| inactive | Cc1c(C(=O)O)sc2nc(/C=C/c3cccnc3N)[nH]c(=O)c12 |

Same assay, conditions: purified PglD, DTNB absorbance 412 nm, CoA release; at 38 µM (top of the series)

| activity change, negative = inhibition | Structure (SMILES) |
| --- | --- |
| inactive | Cc1c(C(=O)O)sc2nc(/C=C/c3cccc(N4CCNCC4)c3)[nH]c(=O)c12 |
